PubChem BioAssay AID1259371 (The Scripps Research Institute Molecular Screening Center, 2018)
Active and inactive are the calls of the source. How the calls were made is not given here.

Each compound was assayed against Microphthalmia-associated transcription factor (Homo sapiens) (UniProt O75030) (assay: MITF inhibitors, potency by titration, dose response, biochemical, AlphaScreen, human (AID 1259371)). Conditions: AlphaScreen biochemical MITF assay, signal inhibition.
Microphthalmia-associated transcription factor (Homo sapiens), sequence (O75030 whole entry, looked up): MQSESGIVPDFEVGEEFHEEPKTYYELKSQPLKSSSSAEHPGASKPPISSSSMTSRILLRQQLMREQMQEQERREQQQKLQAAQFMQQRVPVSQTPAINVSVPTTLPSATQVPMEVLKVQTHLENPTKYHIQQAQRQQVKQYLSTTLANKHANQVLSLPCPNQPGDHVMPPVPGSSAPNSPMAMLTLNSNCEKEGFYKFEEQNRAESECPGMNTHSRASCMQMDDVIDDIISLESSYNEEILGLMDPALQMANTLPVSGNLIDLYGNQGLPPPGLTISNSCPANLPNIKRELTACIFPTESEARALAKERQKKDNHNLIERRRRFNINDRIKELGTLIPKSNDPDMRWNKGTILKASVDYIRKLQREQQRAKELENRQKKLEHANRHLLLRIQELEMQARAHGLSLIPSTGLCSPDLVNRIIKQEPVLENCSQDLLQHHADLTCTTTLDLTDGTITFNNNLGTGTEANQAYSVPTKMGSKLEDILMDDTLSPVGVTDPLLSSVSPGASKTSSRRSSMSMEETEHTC
In the case of CN(c1cccc(NS(=O)(=O)c2ccc([N+](=O)[O-])cc2)c1)S(C)(=O)=O, the IC50 is reported as > 6480 nM (inactive). For O=C(COC(=O)COc1ccc(Cl)cc1)NCc1ccco1, the IC50 was > 2400 nM (inactive). Work on Cc1cc(/C=C2/C=CC(=O)O2)oc1C yielded an IC50 of 651 nM. O=C1OC(c2cc(C3=N/C(=C\c4ccccc4)C(=O)O3)cc(C3=N/C(=C/c4ccccc4)C(=O)O3)c2)=N/C1=C\c1ccccc1 gave an IC50 of 819 nM. CCOC(=O)C1C2NC(=S)N(CC)C1(C)Oc1ccc(Br)cc12 (stereo not given) was tested, and the IC50 was > 6310 nM (inactive). O=C(O)c1cc(-c2ccco2)nc2ccccc12 was tested, and the IC50 was “inactive”. Clc1ccc(CN2CCN(Cc3c[nH]c4ccccc34)CC2)cc1 was tested, and the IC50 was “inactive”. For CN(N=O)c1cc(O)ccc1O, the IC50 was 98.7 nM. In the case of Cc1ccc([N+](=O)[O-])cc1S(=O)(=O)Nc1ccc(Nc2ncccc2[N+](=O)[O-])cc1, the IC50 is reported as 423 nM. CCC12c3ccccc3C(c3ccccc31)C1C(=O)NC(=O)C12 (stereo not given) was tested, and the IC50 was > 2160 nM (inactive). In the case of O=C1N[C@H](Cc2ccc(O)cc2)C(=O)N2CCN(C(=O)NC3CCCCC3)C[C@H]12, the IC50 is reported as > 2160 nM (inactive). For NC(=O)NC(=O)COC(=O)c1c2c(nc3ccccc13)/C(=C\c1ccco1)CCC2, the IC50 was 349 nM. For c1ccc2c(c1)ncn2CC1CCN(Cc2cn3ccccc3n2)CC1, the IC50 was “inactive”. With N#Cc1cc([N+](=O)[O-])ccc1NC(=O)COC(=O)c1cc(-c2ccco2)nc2ccccc12 the IC50 was “inactive”. For O=C(O)C1CC=CCC1C(=O)Nc1nncs1 (stereo not given), the IC50 was “inactive”. For CC(Oc1ccc2c(C(F)(F)F)cc(=O)oc2c1)C(=O)NN (stereo not given), the IC50 was “inactive”. CC1=NC(=S)C2C(=O)O/C(=C/c3ccc(-c4cccc([N+](=O)[O-])c4)o3)C2=C1 (stereo not given) was tested, and the IC50 was “inactive”. For C=CCc1cc(Cl)ccc1OCCOCCNCCOC, the IC50 was > 6480 nM (inactive). In the case of CCOC(=O)C1C2NC(=S)N(c3ccc(CC)cc3)C1(C)Oc1c(OCC)cccc12 (stereo not given), the IC50 is reported as > 5530 nM (inactive). O=C(/C=C/c1ccco1)Nc1cccc(NC(=O)/C=C/c2ccco2)n1 showed an IC50 of 10.4 nM. With O=[N+]([O-])c1ccc(Br)c2c1no[n+]2[O-] the IC50 was “inactive”. For Cc1ccc(C)n1C(Cc1c[nH]c2ccccc12)C(=O)O (stereo not given), the IC50 was 680 nM. COc1ccc(C)cc1NC(=O)C(NCC(O)c1ccccc1)c1ccccc1 (stereo not given) was tested, and the IC50 was “inactive”. With COc1cccc(CC(=O)Nc2nnc(-c3ccco3)c(-c3ccco3)n2)c1 the IC50 was 113 nM. For O=C(OC1CCCC1=O)c1ccc(S(=O)(=O)N2CCCCC2)cc1 (stereo not given), the IC50 was “inactive”. In the case of O=C(NCCO)c1ccc2nc(-c3ccco3)c(-c3ccco3)nc2c1, the IC50 is reported as 396 nM. S=c1[nH]nc(-c2ccco2)n1/N=C/C=C/c1ccco1 was tested, and the IC50 was 5.3 nM. In the case of CCN(CC)c1ccc(C(c2c(C)[nH][nH]c2=O)c2c(C)[nH][nH]c2=O)cc1, the IC50 is reported as 286 nM. In the case of O=C1Nc2ccc(S(=O)(=O)NCc3ccccc3)cc2C1=O, the IC50 is reported as “inactive”. In the case of O=C(O)/C=C/c1ccc([N+](=O)[O-])o1, the IC50 is reported as “inactive”. For O=C(NCC(O)C(=O)N1CCOCC1)c1cccc(Nc2ccc3[nH]ncc3c2)n1 (stereo not given), the IC50 was “inactive”. For O=C(O)CSc1cc(Cl)c2nonc2c1[N+](=O)[O-], the IC50 was “inactive”. In the case of COc1ccc(CCNC(=O)CN2CCN(Cc3nc(-c4ccco4)cs3)CC2)cc1OC, the IC50 is reported as “inactive”. O=C1N[C@H](Cc2ccccc2)C(=O)N2CCN(C(=O)NC3CCCCC3)C[C@H]12 was tested, and the IC50 was 873 nM. For O=C(/C=C/c1ccco1)NCc1cccc(CNC(=O)/C=C/c2ccco2)c1, the IC50 was 115 nM. COC(=O)CCc1cc2c(C)cc(=O)oc2cc1OCc1ccc(C)cc1 was tested, and the IC50 was > 6480 nM (inactive). NS(=O)(=O)c1ccc(N=Cc2cc3c(cc2[N+](=O)[O-])OCO3)cc1 was tested, and the IC50 was “inactive”. COC(=O)CN(CCN(CC(=O)O)CC(=O)OC)CC(=O)O was tested, and the IC50 was “inactive”. For O=[N+]([O-])c1ccc(N/N=C/c2ccco2)c(S(=O)(=O)N2CCOCC2)c1, the IC50 was “inactive”. O=C1N[C@H](CO)C(=O)N2CCN(C(=O)NCc3ccccc3)C[C@H]12 showed an IC50 of 526 nM. Cc1ccc(O)c(NC(=S)NC(=O)/C=C/c2ccco2)c1 was tested, and the IC50 was > 6480 nM (inactive). For C/C(=N\NC(=O)CC1=NNC(=O)C1)c1ccco1, the IC50 was “inactive”. O=C(O)c1cc2ncc(-c3n[nH]c(-c4cnc5cc(C(=O)O)nn5c4)c3[N+](=O)[O-])cn2n1 showed an IC50 of 641 nM. With CC[C@H](C)[C@@H]1NC(=O)[C@H]2CN(C(=O)Nc3cccc(F)c3)CCN2C1=O the IC50 was “inactive”. In the case of Cc1ccc(C)n1C(CC(=O)O)c1ccsc1 (stereo not given), the IC50 is reported as 255 nM. COc1cccc(CN2CCC(CNc3ccc(-c4ccncc4)cc3)C2)c1 (stereo not given) showed an IC50 of 285 nM. In the case of COc1cccc(COC(=O)Nc2cc(F)c(-c3cn[nH]c3)cc2OCCN(C)C)c1, the IC50 is reported as “inactive”. For Cc1sc2nc(C)n3c(=O)n(CC(=O)NCc4ccco4)nc3c2c1C, the IC50 was “inactive”. O=C(O)c1cc(S(=O)(=O)Nc2ccc3cn[nH]c3c2)ccc1O was tested, and the IC50 was “inactive”. CN1C(=O)[C@H]2CN(C(=O)NC3CCCCC3)CCN2C(=O)[C@@H]1CO was tested, and the IC50 was > 6480 nM (inactive). For CC(C)(C)c1ccc(OCCn2cncn2)c(Cl)c1, the IC50 was > 6480 nM (inactive). Work on CC(=O)NC1=NC(=O)/C(=C\c2ccc(Br)o2)S1 yielded an IC50 of 153 nM. With O=c1[nH]cnc2nc(-c3ccco3)c(-c3ccco3)nc12 the IC50 was 79.7 nM. Cc1ccc(N2C(=O)c3ccccc3NC2c2cccc([N+](=O)[O-])c2)cc1 (stereo not given) was tested, and the IC50 was > 5150 nM (inactive). In the case of COc1cc(C=Nc2ccc(N(C)C)cc2)cc(I)c1O, the IC50 is reported as > 6480 nM (inactive). O=C(Nc1ccc(N2CCOCC2)cc1)c1ccnc(Nc2ncccn2)c1 was tested, and the IC50 was “inactive”. C/C(=N\Nc1ccc(S(=O)(=O)O)cc1)c1cccc(Br)c1 was tested, and the IC50 was “inactive”. With O=C(NCc1cccnc1)c1ccnc(-c2cccs2)c1 the IC50 was “inactive”. In the case of O=C1N[C@@H](COCc2ccccc2)C(=O)N2CCN(C(=O)NCc3ccccc3)C[C@H]12, the IC50 is reported as “inactive”. With CCOC(=O)C1C2NC(=S)N(c3ccccc3)C1(C)Oc1cc(OC)ccc12 (stereo not given) the IC50 was > 6400 nM (inactive). For Cc1cccc(CN2CCN(S(=O)(=O)c3ccccc3[N+](=O)[O-])CC2)c1, the IC50 was > 5080 nM (inactive). For CCCCCCCCCCCCCCCC(=O)OC[C@H](O)[C@H]1OC(=O)C(=O)C1O (stereo not given in full), the IC50 was “inactive”. CN1CCN(C(=O)c2ccc(-c3nc(Nc4ccccc4)c4ncn(C5CCCCC5)c4n3)cc2)CC1 was tested, and the IC50 was > 7630 nM (inactive). Work on N#Cc1c(-c2ccco2)cc(-c2ccco2)nc1N yielded an IC50 of 20 nM. With CCOC(=O)N1CCC(NC(=O)CCc2nc(C3=CCN(C)CC3)no2)CC1 the IC50 was “inactive”. Work on CN(C)CCn1nnnc1SCC1=C(C(=O)O)N2C(=O)[C@@H](NC(=O)Cc3csc(N)n3)[C@H]2SC1 yielded an IC50 of 215 nM. Work on N#Cc1c(SCC(=O)O)nc2c(c1-c1ccco1)CCC2 yielded an IC50 of 194 nM. NC(=O)c1cccc(-c2cccs2)c1 was tested, and the IC50 was “inactive”. CC1=NN(c2ccc(C(=O)O)c(N)c2)C(=O)C1 was tested, and the IC50 was “inactive”. With CC(=O)NS(=O)(=O)c1ccc(NC(=O)c2ccc([N+](=O)[O-])o2)cc1 the IC50 was “inactive”. With O=C(O)c1ccc(CNC(=O)c2cocc2C(=O)O)o1 the IC50 was > 7320 nM (inactive). Work on N#C/C(=C\c1nn(-c2ccccc2)c(N)c1C#N)c1ccco1 yielded an IC50 of 386 nM. For O=C(NCc1ccccc1)N1CCN2C(=O)[C@@H]3CCCN3C(=O)[C@H]2C1, the IC50 was “inactive”. Work on CCOc1cccc(OCC)c2c(C)nc(C)c1-2 yielded an IC50 of 207 nM. Work on Nc1ccc(O)c(C(=O)O)c1 yielded an IC50 of 18.7 nM.
